Assay results taken from patent publication US8263596B2, “Kinase inhibitors and method of treating cancer” (University Health Network, priority 2010, dated 2012).
Structures can show the parent of a compound that is named as a salt.

What was measured:
Aurora B = Aurora B (Homo sapiens, UniProt Q96GD4); test: Aurora B inhibition assay (Z-Lyte); type: biochemical; conditions: read-out: IC50 Ranges Aurora B
Experimental: Aurora B inhibition was determined using the Z-Lyte assay kit from Invitrogen. […] The % inhibition values were determined according to the manufacturer's directions and IC50 values were obtained using a non-linear 4 point logistic curve fit (XLfit4, IDBS)

SW620 colon cancer cells = type: cell-based; conditions: Homo sapiens, SW-620, 120 h, read-out: Cell Line GI50 Range SW-620
A549 lung cancer cells = type: cell-based; conditions: Homo sapiens, A549, 120 h, read-out: Cell Line GI50 Range A-549
Aurora A = target: T1, Aurora A (Homo sapiens, UniProt O14965); test: Aurora A inhibition assay (Z-Lyte); type: biochemical
T1 sequence (O14965 1-403): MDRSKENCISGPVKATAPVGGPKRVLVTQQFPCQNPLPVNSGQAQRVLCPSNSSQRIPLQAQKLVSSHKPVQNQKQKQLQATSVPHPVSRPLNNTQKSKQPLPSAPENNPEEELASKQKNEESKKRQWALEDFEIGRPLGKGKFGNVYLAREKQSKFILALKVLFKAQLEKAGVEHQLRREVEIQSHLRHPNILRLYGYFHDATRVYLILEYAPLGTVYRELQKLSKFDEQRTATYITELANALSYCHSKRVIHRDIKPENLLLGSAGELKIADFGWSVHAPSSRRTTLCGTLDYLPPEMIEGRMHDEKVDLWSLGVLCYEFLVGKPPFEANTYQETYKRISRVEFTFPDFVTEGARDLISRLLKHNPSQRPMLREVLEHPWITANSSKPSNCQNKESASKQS

human PLK4 = target: T2, human PLK4 (Homo sapiens, UniProt O00444); test: PLK4 inhibition assay (indirect ELISA); type: biochemical; conditions: read-out: IC50 Ranges PLK4
T2 construct: amino terminal GST fusion of residues 1-391 of human PLK4; made in house; host or cells: E. coli
T2 sequence (O00444 1-391): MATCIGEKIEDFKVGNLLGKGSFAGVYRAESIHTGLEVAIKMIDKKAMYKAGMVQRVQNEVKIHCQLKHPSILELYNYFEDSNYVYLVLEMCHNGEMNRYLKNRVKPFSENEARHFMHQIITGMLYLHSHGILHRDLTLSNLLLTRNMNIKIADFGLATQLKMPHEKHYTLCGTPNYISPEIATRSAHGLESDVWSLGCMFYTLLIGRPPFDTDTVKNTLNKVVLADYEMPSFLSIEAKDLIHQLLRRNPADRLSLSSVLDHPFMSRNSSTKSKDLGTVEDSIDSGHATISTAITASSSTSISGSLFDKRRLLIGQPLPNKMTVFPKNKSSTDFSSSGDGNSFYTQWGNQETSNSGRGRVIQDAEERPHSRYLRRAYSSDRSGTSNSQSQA
Experimental: PLK4 activity was measured using an indirect ELISA detection system. […] The colourimetric reaction was allowed to continue for 5 minutes, followed by addition of stop solution (0.5 N sulphuric acid), and quantified by detection at 450 nm with either a monochromatic or filter based plate reader (Molecular Devices M5 or Beckman DTX880, respectively).
Compounds were pre-incubated in the presence of enzyme for 15 minutes prior to addition of ATP and the activity remaining quantified using the above described activity assay. […] The IC50 value was determined using a non-linear 4 point logistic curve fit (XLfit4, IDBS) with the formula; (A+(B/(1+((x/C)^D)))), where A=background value, B=range, C=inflection point, D=curve fit parameter.

Chain of Aurora B (Q96GD4 whole entry): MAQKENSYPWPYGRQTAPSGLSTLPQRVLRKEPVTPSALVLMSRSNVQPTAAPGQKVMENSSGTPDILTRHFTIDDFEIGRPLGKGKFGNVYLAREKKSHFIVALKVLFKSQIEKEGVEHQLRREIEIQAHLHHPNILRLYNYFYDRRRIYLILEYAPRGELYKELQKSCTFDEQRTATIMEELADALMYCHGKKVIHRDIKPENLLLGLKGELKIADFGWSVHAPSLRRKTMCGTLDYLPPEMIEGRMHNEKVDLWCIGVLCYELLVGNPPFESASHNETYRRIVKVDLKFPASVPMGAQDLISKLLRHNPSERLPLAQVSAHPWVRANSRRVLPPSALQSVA

| Structure (SMILES) | IC50 (Aurora B) | GI50 (SW620 colon cancer cells) | GI50 (A549 lung cancer cells) | IC50 (Aurora A) | IC50 (human PLK4) |
| --- | --- | --- | --- | --- | --- |
| COc1ccc2c(c1)[C@]1(C[C@H]1c1ccc3c(-c4ccc(N5CCN(C)CC5)cc4)n[nH]c3c1)C(=O)N2 (relative stereo) [Example A38, (1R*,2S*)-5′-Methoxy-2-(3-(4-(4-methylpiperazin-1-yl)phenyl)-1H-indazol-6-yl)spiro[cyclopropane-1,3′-indolin]-2′-one] | < 100 nM | 100 to 1000 nM |  |  |  |
| Cc1ccc2c(c1)[C@]1(C[C@H]1c1ccc3c(/C=C/c4ccc(CN(C)C)cc4)n[nH]c3c1)C(=O)N2 (relative stereo) [Example A169, (1R*,2S*)-(E)-2-(3-(4-((dimethylamino)methyl)styryl)-1H-indazol-6-yl)-5′-methylspiro[cyclopropane-1,3′-indolin]-2′-one 2,2,2-trifluoroacetate] |  |  | < 100 nM |  |  |
| COc1ccc2c(c1)[C@]1(C[C@H]1c1ccc3c(-c4ccc(N5CCC(O)CC5)nc4)n[nH]c3c1)C(=O)N2 (relative stereo) [Example A117, (1R*,2S*)-2-(3-(6-(4-hydroxypiperidin-1-yl)pyridin-3-yl)-1H-indazol-6-yl)-5′-methoxyspiro[cyclopropane-1,3′-indolin]-2′-one 2,2,2-trifluoroacetate] | 100 to 1000 nM | > 10000 nM | 1000 to 10000 nM |  |  |
| COc1ccc2c(c1)[C@]1(C[C@H]1c1ccc3c(-c4ccc(C5CCNCC5)cc4)n[nH]c3c1)C(=O)N2 (relative stereo) [Example A122, (1R*,2S*)-5′-methoxy-2-(3-(4-(piperidin-4-yl)phenyl)-1H-indazol-6-yl)spiro[cyclopropane-1,3′-indolin]-2′-one 2,2,2-trifluoroacetate] |  | < 100 nM | < 100 nM |  |  |
| COc1ccc2c(c1)[C@]1(C[C@H]1c1ccc3c(/C=C/c4cccc(CN(C)C)c4)n[nH]c3c1)C(=O)N2 [Example A134, (1R,2S)-2-(3-(3-((dimethylamino)methyl)styryl)-1H-indazol-6-yl)-5′-methoxyspiro[cyclopropane-1,3′-indolin]-2′-one 2,2,2-trifluoroacetate] |  |  |  | 100 to 1000 nM |  |
| COc1ccc2c(c1)[C@]1(CC1c1ccc3c(-c4ccc(N5CCN(C)CC5)nc4)n[nH]c3c1)C(=O)N2 (mixture of isomers) [Example A14, (1R*,2S*)-5′-Methoxy-2-(3-(6-(4-methylpiperazin-1-yl)pyridin-3-yl)-1H-indazol-6-yl)spiro[cyclopropane-1,3′-indolin]-2′-one dihydrochloride] |  | < 100 nM | < 100 nM |  |  |
| O=C1Nc2ccccc2[C@]12CC2c1ccc2cn[nH]c2c1 (mixture of isomers) [Example A2, (1R*,2S*)-2-(1H-indazol-6-yl)spiro[cyclopropane-1,3′-indolin]-2′-one] |  | > 10000 nM | > 10000 nM |  |  |
| COc1ccc2c(c1)C1(CC1c1ccc3c(I)n[nH]c3c1)C(=O)N2 (stereo not drawn) [Example A6, (1R*,2S*)- and (1R*,2R*)-2-(3-iodo-1H-indazol-6-yl)-5-methoxyspiro-[cyclopropane-1,3′-indolin]-2′-one] | 100 to 1000 nM |  |  |  | < 100 nM |
| COc1ccc2c(c1)[C@]1(C[C@H]1c1ccc3c(/C=C/c4ccc(N5CCNCC5)cc4)n[nH]c3c1)C(=O)N2 (relative stereo) [Example A182, (1R*,2S*)-5′-methoxy-2-(3-(4-(piperazin-1-yl)styryl)-1H-indazol-6-yl)spiro[cyclopropane-1,3′-indolin]-2′-one 2,2,2-trifluoroacetate] | < 100 nM |  |  |  | < 100 nM |
| COc1ccc2c(c1)[C@]1(C[C@H]1c1ccc3c(/C=C/c4ccc(N5CCOCC5)nc4)n[nH]c3c1)C(=O)N2 (relative stereo) [Example A213, (1R*,2S*)-5′-methoxy-2-(3-((E)-2-(6-morpholinopyridin-3-yl)vinyl)-1H-indazol-6-yl)spiro[cyclopropane-1,3′-indolin]-2′-one 2,2,2-trifluoroacetate] | < 100 nM |  |  |  | < 100 nM |
| CN1CCN(c2ccc(-c3n[nH]c4cc([C@@H]5C[C@@]56C(=O)Nc5ccc(Br)cc56)ccc34)cn2)CC1 (relative stereo) [Example A19, (1R*,2S*)-5′-bromo-2-(3-(6-(4-methylpiperazin-1-yl)pyridin-3-yl)-1H-indazol-6-yl)spiro[cyclopropane-1,3′-indolin]-2′-one] | < 100 nM |  |  |  | < 100 nM |
| COc1ccc2c(c1)[C@]1(C[C@H]1c1ccc3c(-c4ccc(CN5CCOCC5)cc4)n[nH]c3c1)C(=O)N2 (relative stereo) [Example A139, (1R*,2S*)-5′-methoxy-2-(3-(4-(morpholinomethyl)phenyl)-1H-indazol-6-yl)spiro[cyclopropane-1,3′-indolin]-2′-one 2,2,2-trifluoroacetate] | < 100 nM |  |  |  | < 100 nM |
| COc1ccc2c(c1)[C@]1(C[C@H]1c1ccc3c(/C=C/c4ccc(CN5CCOCC5)s4)n[nH]c3c1)C(=O)N2 [Example A105, (1R,2S)-5′-methoxy-2-(3-((E)-2-(5-(morpholinomethyl)thiophen-2-yl)vinyl)-1H-indazol-6-yl)spiro[cyclopropane-1,3′-indolin]-2′-one hydrochloride] |  | < 100 nM | < 100 nM |  |  |
| NC(=O)CN1C(=O)[C@@]2(C[C@H]2c2ccc3c(/C=C/c4ccc(CN5CCCCC5)cc4)n[nH]c3c2)c2ccccc21 (relative stereo) [Example A165, 2-((1R*,2S*)-(E)-2′-oxo-2-(3-(4-(piperidin-1-ylmethyl)styryl)-1H-indazol-6-yl)spiro[cyclopropane-1,3′-indoline]-1′-yl)acetamide 2,2,2-trifluoroacetate] | < 100 nM |  |  |  | < 100 nM |
| CN1C(=O)[C@@]2(C[C@H]2c2ccc3c(/C=C/c4ccc(N5CCNCC5)cc4)n[nH]c3c2)c2ccccc21 [Example A90, (1R,2S)-(E)-1′-methyl-2-(3-(4-(piperazin-1-yl)styryl)-1H-indazol-6-yl)spiro[cyclopropane-1,3′-indolin]-2′-one hydrochloride] |  | < 100 nM | < 100 nM |  |  |
| CN(C)Cc1cccc(/C=C/c2n[nH]c3cc([C@@H]4C[C@@]45C(=O)Nc4ccccc45)ccc23)c1 (relative stereo) [Example A162, (1R*,2S*)-(E)-2-(3-(3-((dimethylamino)methyl)styryl)-1H-indazol-6-yl) spiro[cyclopropane-1,3′-indolin]-2′-one 2,2,2-trifluoroacetate] | < 100 nM |  |  |  | < 100 nM |
| COc1ccc2c(c1)[C@]1(C[C@H]1c1ccc3c(/C=C/c4ccc(N5CCN(C(C)C)CC5)cc4)n[nH]c3c1)C(=O)N2 (relative stereo) [Example A189, (1R*,2S*)-(E)-2-(3-(4-(4-isopropylpiperazin-1-yl)styryl)-1H-indazol-6-yl)-5′-methoxyspiro[cyclopropane-1,3′-indolin]-2′-one 2,2,2-trifluoroacetate] | < 100 nM |  |  |  | < 100 nM |
| COc1ccc2c(c1)[C@]1(C[C@H]1c1ccc3c(-c4ccc(N5CCC(N(C)C)CC5)cc4)n[nH]c3c1)C(=O)N2 [Example A120, (1R,2S)-2-(3-(4-(4-(dimethylamino)piperidin-1-yl)phenyl)-1H-indazol-6-yl)-5′-methoxyspiro[cyclopropane-1,3′-indolin]-2′-one 2,2,2-trifluoroacetate] | < 100 nM |  |  |  | < 100 nM |
| COc1ccc2c(c1)[C@]1(C[C@H]1c1ccc3c(-c4ccc(C(=O)N5CCN(C)CC5)cc4)n[nH]c3c1)C(=O)N2 (relative stereo) [Example A148, (1R*,2S*)-5′-methoxy-2-(3-(4-(4-methylpiperazine-1-carbonyl)phenyl)-1H-indazol-6-yl)spiro[cyclopropane-1,3′-indolin]-2′-one 2,2,2-trifluoroacetate] | 100 to 1000 nM | 1000 to 10000 nM | 100 to 1000 nM |  | < 100 nM |
| COc1ccc2c(c1)[C@]1(C[C@H]1c1ccc3c(C#Cc4ccc(CN5CCOCC5)cc4)n[nH]c3c1)C(=O)N2 (relative stereo) [Example A138, (1R*,2S*)-5′-methoxy-2-(3-((4-(morpholinomethyl)phenyl)ethynyl)-1H-indazol-6-yl)spiro[cyclopropane-1,3′-indolin]-2′-one 2,2,2-trifluoroacetate] | < 100 nM |  |  |  | < 100 nM |
| COc1ccc2c(c1)[C@]1(C[C@H]1c1ccc3c(-c4ccc(CN5CCN(C)CC5)cc4)n[nH]c3c1)C(=O)N2 (relative stereo) [Example A140, (1R*,2S*)-5′-methoxy-2-(3-(4-((4-methylpiperazin-1-yl)methyl)phenyl)-1H-indazol-6-yl)spiro[cyclopropane-1,3′-indolin]-2′-one bis-2,2,2-trifluoro acetate] | < 100 nM |  |  |  | < 100 nM |
